In patent US6673749B1, “Use of phyllocladane diterpenoids for plant growth promotion and alleviation of growth retardant allelochemicals, and method therefor” (Council of Scientific and Industrial Research, priority 2002, dated 2004):

Tests used:
Assay in all cases: Seed germination and seedling shoot/root growth test in petridishes
Assay type in all cases: in vivo
[1] = tested on: Trigonella foenum-graecum; conditions: for Percent (%) germination of seeds in relation to control on 9th day after sowing / Percent (%) root growth of seedlings in relation to control on 9th day after sowing / Percent (%) shoot growth of seedlings in relation to control on 9th day after sowing: Trigonella foenum graecum, control = 100%
Experimental: (§1) As noted above the activity of phyllocladane diterpenoids used in the practice of this invention was observed when these compounds were tested for their effects on seed germination, root and shoot growth of certain plant species and their antagonistic effect on plant growth retardants by the method described by Bagchi G. D. et al Phytochemistry, 45(6)1131-1133, 1997.
(§2) Plant growth promoting activity of calliterpenone, calliterpenone monoacetate, and calliterpenone di-acetate was examined at 0.1, 0.01 and 0.001 μM concentrations. The tests were conducted against seeds of two monocotyledonous (Hordeum vulgare and Triticum aestivum) and two dicotyledonous plants (Vigna radiata and Trigonella foenum-graecum). Control seeds were germinated in distilled water and all the observations were compared with […]. The root and shoot growth of all the plant species were affected by the phyllocladane diterpenoids, although the extent of effect varied considerably in the plant species with the chemicals and their concentrations. […] Details of the procedure adopted and results obtained are discussed in the various examples.
(§3) 100 ml stalk solutions of 0.1 μM concentration were prepared by dissolving required amounts of various test compounds (depending upon their molecular weights) in minimum amount of ethanol or acetone and adding distilled water. From this stalk solution, 0.01 μM and 0.001 μM concentrations were prepared. Calliterpenone and calliterpenone di acetate was dissolved in 2.0 ml absolute ethanol (Merc), while; calliterpenone monoacetate, isopropylideno calliterpenone and trihydroxy calliterpenone were dissolved in 2.0 ml spectral grade acetone (Ranbaxy). The respective control test solutions of distilled water of each concentration also contained equal amount of absolute ethanol or acetone. For an assay, 10 seeds were placed on Whatman filter paper (moistened with 5.0 ml of test solution in a 9.0 cm diameter petridish (in triplicate). The pteridishes were incubated for 9 days in a germinator, maintained at 25.0±1.0° C. with 90% humidity and 4 hr light/day. At the end of incubation, observations were recorded on the seedlings in terms of germination, shoot and root growth. The data on the length of shoot and root of seedlings and number of seeds germinated in different concentrations of compounds were compared with the control, which was taken as 100%. The data thus obtained were presented in Table-1.
(§4) Root growth of seedlings was measured in the similar way as shoot growth from the experiment as described in Example 1.
(§5) Effect of test compounds on germination was observed from the same experiment as described in Example 1.

[2] = tested on: Hordeum vulgare; conditions: control = 100%
Experimental: as §1, §2, §3, §4, §5

[3] = tested on: Vigna radiata; conditions: Vigna radiata, control = 100%
Experimental: as §1, §2, §3, §4, §5

[4] = tested on: Triticum aestivum; conditions: control = 100%
Experimental: as §1, §2, §3, §4, §5

SMILES | Percent (%) germination of seeds in relation to control on 9th day after sowing ([1]; 0.001 μM) [%] | Percent (%) root growth of seedlings in relation to control on 9th day after sowing ([1]; 0.001 μM) [%] | Percent (%) shoot growth of seedlings in relation to control on 9th day after sowing ([1]; 0.001 μM) [%] | Percent (%) germination of seeds in relation to control on 9th day after sowing ([1]; 0.01 μM) [%] | Percent (%) root growth of seedlings in relation to control on 9th day after sowing ([1]; 0.01 μM) [%] | Percent (%) shoot growth of seedlings in relation to control on 9th day after sowing ([1]; 0.01 μM) [%] | Percent (%) germination of seeds in relation to control on 9th day after sowing ([1]; 0.1 μM) [%] | Percent (%) root growth of seedlings in relation to control on 9th day after sowing ([1]; 0.1 μM) [%] | Percent (%) shoot growth of seedlings in relation to control on 9th day after sowing ([1]; 0.1 μM) [%] | Percent (%) germination of seeds in relation to control on 9th day after sowing ([2]; 0.001 μM) [%] | Percent (%) root growth of seedlings in relation to control on 9th day after sowing ([2]; 0.001 μM) [%] | Percent (%) shoot growth of seedlings in relation to control on 9th day after sowing ([2]; 0.001 μM) [%] | Percent (%) germination of seeds in relation to control on 9th day after sowing ([2]; 0.01 μM) [%] | Percent (%) root growth of seedlings in relation to control on 9th day after sowing ([2]; 0.01 μM) [%] | Percent (%) shoot growth of seedlings in relation to control on 9th day after sowing ([2]; 0.01 μM) [%] | Percent (%) germination of seeds in relation to control on 9th day after sowing ([2]; 0.1 μM) [%] | Percent (%) root growth of seedlings in relation to control on 9th day after sowing ([2]; 0.1 μM) [%] | Percent (%) shoot growth of seedlings in relation to control on 9th day after sowing ([2]; 0.1 μM) [%] | Percent (%) germination of seeds in relation to control on 9th day after sowing ([3]; 0.001 μM) [%] | Percent (%) root growth of seedlings in relation to control on 9th day after sowing ([3]; 0.001 μM) [%] | also measured
CC(=O)OCC1(OC(C)=O)CC23CCC4C(C)(C)C(=O)CCC4(C)C2CCC1C3 (stereo not shown) [Calliterpenone Diacetate, calliterpenone diacetate] | 100 | 73 | 81 | 100 | 113 | 121 | 75 | 95 | 94 | 100 | 119 | 108 | 100 | 113 | 106 | 100 | 98 | 105 | 200 | 91 | Percent (%) root growth of seedlings in relation to control on 9th day after sowing ([1]; 0.001 μM, listed as Calliterpenone diacetate): 113%; Percent (%) root growth of seedlings in relation to control on 9th day after sowing ([2]; 0.01 μM, listed as Calliterpenone diacetate): 119%; Percent (%) shoot growth of seedlings in relation to control on 9th day after sowing ([3]; 0.001 μM): 111%; Percent (%) germination of seeds in relation to control on 9th day after sowing ([3]; 0.01 μM): 100%; Percent (%) root growth of seedlings in relation to control on 9th day after sowing ([3]; 0.01 μM): 136%; Percent (%) shoot growth of seedlings in relation to control on 9th day after sowing ([3]; 0.01 μM): 115%; Percent (%) germination of seeds in relation to control on 9th day after sowing ([3]; 0.1 μM): 100%; Percent (%) root growth of seedlings in relation to control on 9th day after sowing ([3]; 0.1 μM): 93%; Percent (%) shoot growth of seedlings in relation to control on 9th day after sowing ([3]; 0.1 μM): 119%; Percent (%) germination of seeds in relation to control on 9th day after sowing ([4]; 0.001 μM): 100%; Percent (%) root growth of seedlings in relation to control on 9th day after sowing ([4]; 0.001 μM): 125%; Percent (%) shoot growth of seedlings in relation to control on 9th day after sowing ([4]; 0.001 μM): 109%; Percent (%) germination of seeds in relation to control on 9th day after sowing ([4]; 0.01 μM): 100%; Percent (%) root growth of seedlings in relation to control on 9th day after sowing ([4]; 0.01 μM): 114%; Percent (%) shoot growth of seedlings in relation to control on 9th day after sowing ([4]; 0.01 μM): 106%; Percent (%) germination of seeds in relation to control on 9th day after sowing ([4]; 0.1 μM): 90%; Percent (%) root growth of seedlings in relation to control on 9th day after sowing ([4]; 0.1 μM): 103%; Percent (%) shoot growth of seedlings in relation to control on 9th day after sowing ([4]; 0.1 μM): 103%
CC1(C)OCC2(CC34CCC5C(C)(C)C(=O)CCC5(C)C3CCC2C4)O1 (stereo not drawn) [Isopropylideno Calliterpenone, 16α, 17-isopropylidino 3-oxo phyllocladane] | 100 | 132 | 137 | 113 | 123 | 123 | 100 | 91 | 100 | 100 | 118 | 106 | 100 | 115 | 107 | 100 | 143 | 108 | 150 | 91 | Percent (%) root growth of seedlings in relation to control on 9th day after sowing ([1]; 0.01 μM, listed as Iso-propylideno calliterpenone): 132%; Percent (%) shoot growth of seedlings in relation to control on 9th day after sowing ([3]; 0.001 μM): 89%; Percent (%) germination of seeds in relation to control on 9th day after sowing ([3]; 0.01 μM): 100%; Percent (%) root growth of seedlings in relation to control on 9th day after sowing ([3]; 0.01 μM): 131%; Percent (%) shoot growth of seedlings in relation to control on 9th day after sowing ([3]; 0.01 μM): 153%; Percent (%) germination of seeds in relation to control on 9th day after sowing ([3]; 0.1 μM): 100%; Percent (%) root growth of seedlings in relation to control on 9th day after sowing ([3]; 0.1 μM): 124%; Percent (%) shoot growth of seedlings in relation to control on 9th day after sowing ([3]; 0.1 μM): 145%; Percent (%) germination of seeds in relation to control on 9th day after sowing ([4]; 0.001 μM): 100%; Percent (%) root growth of seedlings in relation to control on 9th day after sowing ([4]; 0.001 μM): 109%; Percent (%) shoot growth of seedlings in relation to control on 9th day after sowing ([4]; 0.001 μM): 103%; Percent (%) germination of seeds in relation to control on 9th day after sowing ([4]; 0.01 μM): 100%; Percent (%) root growth of seedlings in relation to control on 9th day after sowing ([4]; 0.01 μM): 107%; Percent (%) shoot growth of seedlings in relation to control on 9th day after sowing ([4]; 0.01 μM): 103%; Percent (%) germination of seeds in relation to control on 9th day after sowing ([4]; 0.1 μM): 100%; Percent (%) root growth of seedlings in relation to control on 9th day after sowing ([4]; 0.1 μM): 78%; Percent (%) shoot growth of seedlings in relation to control on 9th day after sowing ([4]; 0.1 μM): 102%
CC1(C)C(O)CCC2(C)C3CCC4CC3(CCC12)CC4(O)CO (stereo not drawn) [Trihydroxy Phyllocladane, 30β, 16α, 17. trihydroxy phyllocladane] | 63 | 55 | 53 | 75 | 68 | 72 | 88 | 82 | 84 | 100 | 145 | 102 | 100 | 112 | 108 | 100 | 106 | 109 | 100 | 100 | Effect on shoots (in words) ([1]; T. foenum-graecum, all dilutions tested): proved toxic; Percent (%) shoot growth of seedlings in relation to control on 9th day after sowing ([3]; 0.001 μM): 136%; Percent (%) germination of seeds in relation to control on 9th day after sowing ([3]; 0.01 μM): 150%; Percent (%) root growth of seedlings in relation to control on 9th day after sowing ([3]; 0.01 μM): 102%; Percent (%) shoot growth of seedlings in relation to control on 9th day after sowing ([3]; 0.01 μM): 145%; Percent (%) germination of seeds in relation to control on 9th day after sowing ([3]; 0.1 μM): 150%; Percent (%) root growth of seedlings in relation to control on 9th day after sowing ([3]; 0.1 μM): 93%; Percent (%) shoot growth of seedlings in relation to control on 9th day after sowing ([3]; 0.1 μM): 132%; Percent (%) germination of seeds in relation to control on 9th day after sowing ([4]; 0.001 μM): 100%; Percent (%) root growth of seedlings in relation to control on 9th day after sowing ([4]; 0.001 μM): 90%; Percent (%) shoot growth of seedlings in relation to control on 9th day after sowing ([4]; 0.001 μM): 108%; Percent (%) germination of seeds in relation to control on 9th day after sowing ([4]; 0.01 μM): 100%; Percent (%) root growth of seedlings in relation to control on 9th day after sowing ([4]; 0.01 μM): 113%; Percent (%) shoot growth of seedlings in relation to control on 9th day after sowing ([4]; 0.01 μM): 112%; Percent (%) germination of seeds in relation to control on 9th day after sowing ([4]; 0.1 μM): 100%; Percent (%) root growth of seedlings in relation to control on 9th day after sowing ([4]; 0.1 μM): 111%; Percent (%) shoot growth of seedlings in relation to control on 9th day after sowing ([4]; 0.1 μM): 116%
